Experiments:
[1] = tested on: Johnson grass (JG); assay: Pre-emergence herbicide test; type: in vivo, Sorgum helepense; settings: Sorghum halepense, 336 h, two weeks after treatment
Procedure, shortened: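 Pots seeded one day before spraying; compound applied pre-emergence at 8 lbs/acre (or 4 lbs/acre) in 38 gallons/acre spray volume. Sub-irrigated in greenhouse; injury/control rated visually two weeks after treatment.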

[2] = tested on: Sinapis; assay: Field test, post-emergence application; type: in vivo; set-up: unit not given here; settings: 2 lbs/acre, reading 0 = no effect, 10 = completely killed, 8 and 14 days
Experimental: (§1) Tests have also been made for the compound of Example 1 with Sinapis, oats and wheat. This test was conducted according to the following procedure.
(§2) Forty rows, 70 feet long, were planted to weeds and crops. Two rows were planted on each bed. Beds were 40 inches apart from center to center. The two rows were about 10 inches apart on each bed. Beds were rolled prior to planting to provide a uniform smooth surface. Soil temperature at a depth of 11/2 inches was 66° F. at time of planting. Post-emergence applications were made by spraying bands across rows 10 feet wide using a self-propelled plot sprayer with a 10 foot boom equipped with Teejet 8001 flat spray nozzle tips and operated at 40 psi. A total of 84 fluid ounces of spray material was applied to three replicates. Each replicate plot was 10 feet wide by 66.67 feet long.
(§3) Eight days after the application, readings were made on the effect of the chemicals on each crop and weed in the post-emergence treatment. A reading of 0 was recorded if no effect was observed; 10 recorded if the plants were completely killed, and readings of 1 to 9 for intermediate kills. A second reading of the post-emergence treatments was made 14 days after the application.

[3] = tested on: Amaranth pigweed (PW); assay: Pre-emergence herbicide test; type: in vivo, Amaranthus retroflexus; settings: 336 h, two weeks after treatment
Procedure, shortened: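 Pigweed was surface-seeded in potted soil one day before spraying at 8 lbs compound per acre, or 4 lbs/acre, in 38 gallons per acre. Pots were kept in the greenhouse with sub-irrigation only; injury or control was rated visually two weeks after treatment.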

[4] = tested on: Yellow foxtail grass (YF); assay: Post-emergence herbicide test; type: in vivo, Setaria glauca; settings: Setaria, 336 h, two weeks after treatment
Procedure, shortened: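 Potted seedlings grown in greenhouse, planting staggered to reach the target stage together, then sprayed post-emergence at 8 lbs actual compound/acre in 38 gallons/acre (4 lbs/acre formulations also prepared). Sub-irrigated afterwards. Injury or control rated visually two weeks after treatment.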

[5] = tested on: Corn (CN); assay: Post-emergence herbicide test; type: in vivo; settings: Zea mays, 336 h, two weeks after treatment
Procedure, shortened: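 Greenhouse seedlings grown in potting soil and sprayed post-emergence at 8 lbs compound/acre (formulations also made for 4 lbs/acre) in 38 gallons/acre spray volume. Watering by sub-irrigation only. Injury or control rated visually two weeks after treatment.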

[6] = tested on: Crabgrass (CG); assay: Pre-emergence herbicide test; type: in vivo, Digitaria sanquinalis; settings: Digitaria sanguinalis, pre-emergence, 336 h, two weeks after treatment
Procedure, shortened: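 Crabgrass (Digitaria sanquinalis) was surface seeded in 3' plastic pots of potting soil, covered with screened soil, and watered by sub-irrigation in greenhouse trays. Pots were seeded one day before spraying in a hood with a moving belt and fixed nozzle. Plants stayed in the greenhouse on sub-irrigation, and pre-emergence control was rated visually two weeks after treatment.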

[7] = tested on: Crabgrass (CG); assay: Post-emergence herbicide test; type: in vivo, Digitaria sanquinalis; settings: Digitaria sanguinalis, post-emergence, 336 h, two weeks after treatment
Procedure, shortened: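 Crabgrass (Digitaria sanquinalis) was surface seeded individually in 3' plastic pots of potting soil, covered with screened soil, and watered by sub-irrigation in greenhouse trays. Planting was staggered so seedlings reached the target stage together. Post-emergence sprays were applied in a hood with a removable belt and fixed nozzle, and control was visually rated two weeks after treatment.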

[8] = Acute oral toxicity in rats; settings: rat, in vivo
[9] = tested on: Barnyard grass (BG); assay: Pre-emergence herbicide test; type: in vivo; settings: Echinochloa crus-galli, 336 h, two weeks after treatment
Procedure, shortened: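 Barnyard grass surface-seeded in potting soil and sprayed pre-emergence one day after seeding, at 8 or 4 lb compound/acre in 38 gal/acre spray volume. Pots kept in greenhouse with sub-irrigation only; injury or control rated visually two weeks after treatment.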

[10] = tested on: Cotton (CT); assay: Pre-emergence herbicide test; type: in vivo, Gossypium hirsutum var. DPL smooth leaf; settings: Gossypium hirsutum, 336 h, two weeks after treatment
Procedure, shortened: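 Crop and weed species seeded one day before treatment, then sprayed pre-emergence at 8 lbs actual compound per acre (also 4 lbs/acre formulations) in 38 gallons per acre. Pots kept in greenhouse with sub-irrigation only; injury or control visually rated two weeks after treatment.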

[11] = tested on: variety of crops and weed species; assay: Pre- and post-emergence herbicide tests, overall assessment of Tables III-VI; type: in vivo; settings: data of Tables III-VI
Procedure, shortened: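 Crops and weeds grown in potting soil were sprayed at 8 lbs. compound per acre in 38 gallons per acre, pre-emergence pots seeded one day before treatment. Injury or control was visually rated two weeks after treatment.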

[12] = tested on: Turnip (TP); assay: Pre-emergence herbicide test; type: in vivo, Brassica sp.; settings: Brassica rapa, pre-emergence, 336 h, two weeks after treatment
Procedure, shortened: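 Turnip (Brassica sp.) seeds were surface sown in 3' plastic pots of potting soil, covered with a thin layer of screened soil, and sub-irrigated in greenhouse trays. Pots were seeded one day ahead of treatment, sprayed pre-emergence under a hood with a fixed nozzle and moving belt, then kept in the greenhouse.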

[13] = tested on: Sinapis; assay: Field test, pre-emergence application; type: in vivo; settings: reading 0 = no effect, 10 = completely killed, 14 and 20 days
Experimental: as §1
as §2, with “long. […]” for “long.”
as §3
Readings were made 14 and 20 days after the pre-emergence application.

[14] = tested on: Amaranth pigweed (PW); assay: Post-emergence herbicide test; type: in vivo, Amaranthus retroflexus; settings: 336 h, two weeks after treatment
Procedure, shortened: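 Pot-grown pigweed was sprayed post-emergence at the 1–2 true-leaf stage with compound at rates equivalent to 8 lbs per acre (formulations also prepared for 4 lbs/acre) in 38 gallons per acre, using a hood with fixed nozzle. Plants were sub-irrigated in the greenhouse, and injury or control was rated visually two weeks after treatment.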

[15] = tested on: Corn (CN); assay: Pre-emergence herbicide test; type: in vivo; settings: Zea mays, 336 h, two weeks after treatment
Procedure, shortened: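 Four corn seeds per pot, sown at seed-diameter depth one day before spraying, got soil surface treatment at 8 lbs/acre (4 lbs/acre formulations also prepared) in 38 gallons/acre. Pots were greenhouse-held with sub-irrigation only. Injury or control was scored visually two weeks after treatment.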

[16] = tested on: Cotton (CT); assay: Post-emergence herbicide test; type: in vivo, Gossypium hirsutum var. DPL smooth leaf; settings: Gossypium hirsutum, post-emergence, 336 h, two weeks after treatment
Procedure, shortened: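 Cotton (Gossypium hirsutum var. DPL smooth leaf) was grown in 3' plastic pots of potting soil, four seeds per pot, planted at a depth equal to the seed diameter and watered by sub-irrigation. At the stage of expanded cotyledons with the first true leaf 1' long, plants were sprayed post-emergence in a hood with a fixed nozzle over a moving belt. Percent control was rated visually two weeks later.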

For `CNC(=O)Nc1nnc(C(F)(F)F)s1` [Example 1, 1-Methyl-3-[5-Trifluoromethyl-2-(1,3,4-Thiadiazolyl)] Urea], the pest or weed control at 4483.4 g/ha ([1]; 4 lb/acre) was 80%, the pest or weed control at 8966.8 g/ha ([1]; 8 lb/acre) was 70% and the “Post-emergence activity, % control, Sinapis” value [2] was 10. The pest or weed control at 4483.4 g/ha ([3]; 4 lb/acre) was 90%, the pest or weed control at 8966.8 g/ha ([3]; 8 lb/acre) was 90% and the pest or weed control ([4]; 2 lb/acre) was 50%. It also gave a pest or weed control at 4483.4 g/ha ([4]; 4 lb/acre) of 90%, a pest or weed control at 8966.8 g/ha ([4]; 8 lb/acre) of 100% and a pest or weed control ([5]; 2 lb/acre) of 70%. The pest or weed control at 4483.4 g/ha ([5]; 4 lb/acre) was 100%, the pest or weed control at 8966.8 g/ha ([5]; 8 lb/acre) was 100% and the pest or weed control at 4483.4 g/ha ([6]; 4 lb/acre) was 90%. It also gave a pest or weed control at 8966.8 g/ha ([6]; 8 lb/acre) of 100%, a pest or weed control ([7]; 2 lb/acre) of 60% and a pest or weed control at 4483.4 g/ha ([7]; 4 lb/acre) of 90%. It also gave a pest or weed control at 8966.8 g/ha ([7]; 8 lb/acre) of 100%, an LD50 [8] of 436 mg/kg and a pest or weed control at 4483.4 g/ha ([9]; 4 lb/acre) of 90%. For the same molecule, the pest or weed control at 8966.8 g/ha ([9]; 8 lb/acre) was 90%, the pest or weed control at 4483.4 g/ha ([10]; 4 lb/acre) was 80% and the pest or weed control at 8966.8 g/ha ([10]; 8 lb/acre) was 100%. The “herbicidal effectiveness / selectivity, in words” value [11] was “extremely effective when applied to a variety of crops and weed species”, the pest or weed control at 4483.4 g/ha ([12]; 4 lb/acre) was 90% and the pest or weed control at 8966.8 g/ha ([12]; 8 lb/acre) was 100%. The “Pre-emergency activity, % control, Sinapis” value ([13]; 1 lb/acre) was 10 rating score (0–10 scale), the “Pre-emergency activity, % control, Sinapis” value ([13]; 2 lbs/acre) was 10 rating score (0–10 scale) and the pest or weed control at 2241.7 g/ha ([14]; 2 lb/acre) was 100%. For the same molecule, the pest or weed control at 4483.4 g/ha ([14]; 4 lb/acre) was 100%, the pest or weed control at 8966.8 g/ha ([14]; 8 lb/acre) was 100% and the pest or weed control at 4483.4 g/ha ([15]; 4 lb/acre) was 30%. It also gave a pest or weed control at 8966.8 g/ha ([15]; 8 lb/acre) of 90%, a pest or weed control at 2241.7 g/ha ([16]; 2 lb/acre) of 100% and a pest or weed control at 4483.4 g/ha ([16]; 4 lb/acre) of 100%. The pest or weed control at 8966.8 g/ha ([16]; 8 lb/acre) was 100%.
